PubChem BioAssay AID330 (DTP/NCI, 2004)
“And” between values parts separate entries of the source, which are not always exact repeats. Equal values may be shown once. Toxic doses and inconclusive results are not listed. The calls were made as follows: active = survival T/C of 150% or more; inactive = T/C below 125% in these data.

Test system: P388 leukemia ip, CD2F1 mice, survival T/C
Assay: NCI In Vivo Anticancer Drug Screen. Data for tumor model P388 Leukemia (intraperitoneal) in CD2F1 (CDF1) mice
Conditions: endpoint: median survival time, higher = longer survival
How it was run: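 Mice carrying the transplanted tumor received test compound or vehicle. Survival was recorded in each group, and the value is the treated-group measurement divided by that of the vehicle-treated control group.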

[1] = dose: 50.0 mg/kg/injection, schedule: Q01DX005 (ip), vehicle: saline with Tween-80
[2] = dose: 50.0 mg/kg/injection, schedule: Q01DX009 (ip), vehicle: saline
[3] = dose: 100.0 mg/kg/injection, schedule: Q01DX009 (ip), vehicle: saline
[4] = dose: 50.0 mg/kg/injection, schedule: Q01DX005 (ip), vehicle: Klucel (hydroxypropylcellulose) (HPC)
[5] = dose: 7.5 mg/kg/injection, schedule: Q01DX005 (ip), vehicle: saline with Tween-80
[6] = dose: 15.0 mg/kg/injection, schedule: Q01DX005 (ip), vehicle: saline with Tween-80
[7] = dose: 60.0 mg/kg/injection, schedule: Q01DX005 (ip), vehicle: saline
[8] = dose: 120.0 mg/kg/injection, schedule: Q01DX005 (ip), vehicle: saline

Measured: T/C

Cc1ccccc1-n1c(=S)n(-c2ccc(Cl)cc2)c2nc3ccccc3nc1/c2=N/Nc1ccccc1
inactive: dose: 12.5 mg/kg/injection, schedule: Q01DX005 (ip), vehicle: saline with Tween-80 95 % of control | dose: 25.0 mg/kg/injection, schedule: Q01DX005 (ip), vehicle: saline with Tween-80 96 % of control | [1] 94 % of control

COC1C(/C=C/C(=O)CCl)OC2OC(C)(C)OC21 (configuration not stated)
inactive: dose: 3.12 mg/kg/injection, schedule: Q01DX005 (ip), vehicle: saline 108 % of control | dose: 6.25 mg/kg/injection, schedule: Q01DX005 (ip), vehicle: saline 108 % of control | dose: 12.5 mg/kg/injection, schedule: Q01DX005 (ip), vehicle: saline 105 % of control

CCc1cc(C2C(=O)c3ccccc3C2=O)cc(CC)c1O
inactive: dose: 100.0 mg/kg/injection, schedule: Q04DX002 (ip), vehicle: saline 107 % of control | dose: 200.0 mg/kg/injection, schedule: Q04DX002 (ip), vehicle: saline 105 % of control | dose: 400.0 mg/kg/injection, schedule: Q04DX002 (ip), vehicle: saline 110 % of control

NC(=O)C1CNCC(C(N)=O)C1 (configuration not stated)
inactive: [2] 100 % of control and 98 % of control | [3] 98 % of control | dose: 200.0 mg/kg/injection, schedule: Q01DX009 (ip), vehicle: saline 99 % of control

CCC1(C(C)C)NC(=O)NC1=O (configuration not stated)
inactive: [4] 106 % of control | dose: 100.0 mg/kg/injection, schedule: Q01DX005 (ip), vehicle: Klucel (hydroxypropylcellulose) (HPC) 104 % of control | dose: 200.0 mg/kg/injection, schedule: Q01DX005 (ip), vehicle: Klucel (hydroxypropylcellulose) (HPC) 106 % of control

N#CC(=O)Nc1ccc(F)cc1
inactive: dose: 3.75 mg/kg/injection, schedule: Q01DX005 (ip), vehicle: saline with Tween-80 102 % of control | [5] 94 % of control | [6] 100 % of control and 107 % of control

COc1ccc2c([O-])c3[n+](cc2c1OC)CCc1cc2c(cc1-3)OCO2
inactive: dose: 50.0 mg/kg/injection, schedule: Q04DX002 (ip), vehicle: saline with Tween-80 103 % of control | dose: 100.0 mg/kg/injection, schedule: Q04DX002 (ip), vehicle: saline with Tween-80 106 % of control | dose: 200.0 mg/kg/injection, schedule: Q04DX002 (ip), vehicle: saline with Tween-80 102 % of control

CSC(=S)N/N=C(\C)c1nccnc1C
inactive: [1] 101 % of control | dose: 100.0 mg/kg/injection, schedule: Q01DX005 (ip), vehicle: saline with Tween-80 106 % of control | dose: 200.0 mg/kg/injection, schedule: Q01DX005 (ip), vehicle: saline with Tween-80 111 % of control

CC1C(O)CCC2=CC(=O)C3(C4(CO)CO4)OC3C21C (configuration not stated)
inactive: dose: 15.0 mg/kg/injection, schedule: Q01DX005 (ip), vehicle: saline 102 % of control | dose: 30.0 mg/kg/injection, schedule: Q01DX005 (ip), vehicle: saline 91 % of control | [7] 108 % of control | dose: 62.5 mg/kg/injection, schedule: Q01DX005 (ip), vehicle: saline 103 % of control | [8] 98 % of control | dose: 125.0 mg/kg/injection, schedule: Q01DX005 (ip), vehicle: saline 110 % of control | dose: 250.0 mg/kg/injection, schedule: Q01DX005 (ip), vehicle: saline 114 % of control

CC1OC(OC2C(Oc3cc(O)c4c(=O)cc(-c5ccc(OC6OC(CO)C(O)C(O)C6OC6OC(C)C(O)C(O)C6O)c(O)c5)oc4c3)OC(CO)C(O)C2O)C(O)C(O)C1O (configuration not stated)
inactive: dose: 3.0 mg/kg/injection, schedule: Q01DX009 (ip), vehicle: Klucel (hydroxypropylcellulose) (HPC) 106 % of control | dose: 6.0 mg/kg/injection, schedule: Q01DX009 (ip), vehicle: Klucel (hydroxypropylcellulose) (HPC) 95 % of control | dose: 12.0 mg/kg/injection, schedule: Q01DX009 (ip), vehicle: Klucel (hydroxypropylcellulose) (HPC) 93 % of control | dose: 24.0 mg/kg/injection, schedule: Q01DX009 (ip), vehicle: Klucel (hydroxypropylcellulose) (HPC) 95 % of control

O=c1[nH]cc(Cn2cnc3ncccc3c2=O)c(=O)[nH]1
inactive: dose: 100.0 mg/kg/injection, schedule: Q01DX001 (ip), vehicle: suspension in saline 93 % of control | dose: 200.0 mg/kg/injection, schedule: Q01DX001 (ip), vehicle: suspension in saline 105 % of control | dose: 400.0 mg/kg/injection, schedule: Q01DX001 (ip), vehicle: suspension in saline 112 % of control

COc1ccc(C(OCC2CC3C=CC2C3)OCC2CC3C=CC2C3)cc1 (configuration not stated)
inactive: dose: 12.5 mg/kg/injection, schedule: Q01DX009 (ip), vehicle: other 110 % of control | dose: 25.0 mg/kg/injection, schedule: Q01DX009 (ip), vehicle: other 111 % of control | dose: 50.0 mg/kg/injection, schedule: Q01DX009 (ip), vehicle: other 105 % of control | dose: 100.0 mg/kg/injection, schedule: Q01DX009 (ip), vehicle: other 114 % of control | dose: 200.0 mg/kg/injection, schedule: Q01DX009 (ip), vehicle: other 114 % of control

CN(CCO)C1CC(C)(C)N(O)C(C)(C)C1
inactive: [7] 96 % of control | [8] 100 % of control | dose: 240.0 mg/kg/injection, schedule: Q01DX005 (ip), vehicle: saline 100 % of control

Cc1cc2nc(CC(=O)c3cccnc3)c(=O)[nH]c2cc1C
inactive: [5] 100 % of control | [6] 94 % of control | dose: 30.0 mg/kg/injection, schedule: Q01DX005 (ip), vehicle: saline with Tween-80 92 % of control | dose: 240.0 mg/kg/injection, schedule: Q01DX005 (ip), vehicle: saline with Tween-80 88 % of control

C=C(C)C(=O)Nc1ccc(NC(C)C)cc1
inactive: dose: 12.5 mg/kg/injection, schedule: Q01DX009 (ip), vehicle: saline with Tween-80 115 % of control | dose: 12.5 mg/kg/injection, schedule: Q01DX009 (ip), vehicle: saline 105 % of control | dose: 25.0 mg/kg/injection, schedule: Q01DX009 (ip), vehicle: saline with Tween-80 108 % of control | dose: 25.0 mg/kg/injection, schedule: Q01DX009 (ip), vehicle: saline 97 % of control | dose: 50.0 mg/kg/injection, schedule: Q01DX009 (ip), vehicle: saline with Tween-80 93 % of control and 96 % of control | [2] 90 % of control | [3] 102 % of control

COc1cc(C/C(=N/N=C(N)N)C(=O)O)cc(OC)c1OC
inactive: dose: 100.0 mg/kg/injection, schedule: Q01DX001 (ip), vehicle: saline 99 % of control | dose: 200.0 mg/kg/injection, schedule: Q01DX001 (ip), vehicle: saline 100 % of control | dose: 400.0 mg/kg/injection, schedule: Q01DX001 (ip), vehicle: saline 100 % of control

[CH3][Sn]1([CH3])[O]C(=O)CC(CC(=O)O)C(=O)[O]1 (configuration not stated)
inactive: dose: 12.5 mg/kg/injection, schedule: Q01DX005 (ip), vehicle: Klucel (hydroxypropylcellulose) (HPC) 119 % of control | dose: 25.0 mg/kg/injection, schedule: Q01DX005 (ip), vehicle: Klucel (hydroxypropylcellulose) (HPC) 117 % of control | [4] 113 % of control and 117 % of control

O=S(=O)(SC(Cl)(Cl)Cl)c1ccc(Cl)cc1
inactive: dose: 12.5 mg/kg/injection, schedule: Q01DX009 (ip), vehicle: saline sonified 100 % of control | dose: 25.0 mg/kg/injection, schedule: Q01DX009 (ip), vehicle: saline sonified 100 % of control | dose: 50.0 mg/kg/injection, schedule: Q01DX009 (ip), vehicle: saline sonified 100 % of control

Cc1nn(C(=O)c2ccncc2)c(C)c1N=Nc1ccccc1[N+](=O)[O-]
inactive: dose: 50.0 mg/kg/injection, schedule: Q01DX009 (ip), vehicle: Klucel (hydroxypropylcellulose) (HPC) 102 % of control | dose: 100.0 mg/kg/injection, schedule: Q01DX009 (ip), vehicle: Klucel (hydroxypropylcellulose) (HPC) 96 % of control | dose: 200.0 mg/kg/injection, schedule: Q01DX009 (ip), vehicle: Klucel (hydroxypropylcellulose) (HPC) 98 % of control

CCc1nc(N)nc(N)c1-c1ccc(NC(C)c2ccccc2)c([N+](=O)[O-])c1 (configuration not stated)
inactive: dose: 3.75 mg/kg/injection, schedule: Q01DX005 (ip), vehicle: Klucel (hydroxypropylcellulose) (HPC) 101 % of control | dose: 7.5 mg/kg/injection, schedule: Q01DX005 (ip), vehicle: Klucel (hydroxypropylcellulose) (HPC) 101 % of control and 107 % of control | dose: 15.0 mg/kg/injection, schedule: Q01DX005 (ip), vehicle: Klucel (hydroxypropylcellulose) (HPC) 112 % of control and 113 % of control
